According to US12286442B2, “Methods and materials for increasing transcription factor eb polypeptide levels” (University of Pittsburgh—Of the Commonwealth System of …, priority 2019, dated 2025):

What was measured:
[1] = test system: TFEB; assay: High content screen measuring TFEB nuclear accumulation (TFEB nuclear/cytosol ratio) in BEAS-2B cells stably expressing TFEB-EGFP; assay type: cell-based, human; conditions: 18 hours incubation
Procedure, shortened: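 Readout: lowest compound concentration giving a 25% rise in nuclear/cytosol TFEB-GFP ratio, from DAPI-masked nuclear and mask-expanded cytosolic signals. Cells (BEAS-2B, TFEB-EGFP stable, ~2300–2500/well) rested 8 hours, then treated 18 hours with compound serial dilutions in 2% FBS medium before PFA fixation and DAPI staining.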

[2] = test system: BEAS-2B cells; assay: Toxicity: compound concentration needed to induce greater than 50 percent of cell loss; assay type: cell-based, human; conditions: 18 hours incubation
Procedure, shortened: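 Reported value is the concentration giving greater than 50 percent cell loss, grouped into bins (≥25 μM; between 1 and 25 μM; ≤1 μM as "+++"). Measured by high-content imaging of DAPI-stained BEAS-2B TFEB-EGFP cells fixed after 18 h compound exposure.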

Row | Compound | efficacy (minimal compound concentration needed to increase TFEB nuclear/cytosol ratio by 25%) [1] | toxicity (compound concentration needed to induce greater than 50 percent of cell loss) [2]
1 | Fc1cc(Nc2nc(-c3ccncc3)nc3ncccc23)cc2cc[nH]c12 [Compound 157] | +++ (“+++” equals ≤1 μM) | ++ (cell loss of greater than 50 percent at a concentration less than 25 μM and greater than 1 μM was represented as)
2 | Fc1cccc2c(Nc3cc(F)c4[nH]ccc4c3)nc(-c3ccncc3)nc12 [Compound 158] | +++ (“+++” equals ≤1 μM) | + (cell loss of greater than 50 percent at a concentration that equals or is greater than 25 μM was represented as)
3 | Cc1ccc(-c2nc(Nc3cccc(F)c3)c3ccccc3n2)cc1 [Compound 159] | + (“+” equals >25 μM) | + (cell loss of greater than 50 percent at a concentration that equals or is greater than 25 μM was represented as)
4 | O=[N+]([O-])c1cccc(-c2nc(Nc3cccc(F)c3)c3ccccc3n2)c1 [Compound 161] | + (“+” equals >25 μM) | + (cell loss of greater than 50 percent at a concentration that equals or is greater than 25 μM was represented as)
5 | Nc1c(Cl)cc(Nc2nc(-c3ccncc3)nc3ccccc23)cc1Cl [Compound 162] | + (“+” equals >25 μM) | + (cell loss of greater than 50 percent at a concentration that equals or is greater than 25 μM was represented as)
6 | COc1ccc(-c2nc(Nc3ccc(C)c(F)c3)c3ccccc3n2)cc1 [Compound 163] | + (“+” equals >25 μM) | + (cell loss of greater than 50 percent at a concentration that equals or is greater than 25 μM was represented as)
7 | CCCCNc1nc(-c2ccncc2)nc2ccccc12 [Compound 164] | + (“+” equals >25 μM) | + (cell loss of greater than 50 percent at a concentration that equals or is greater than 25 μM was represented as)
8 | c1ccc2c(NC3CC3)nc(-c3ccncc3)nc2c1 [Compound 165] | + (“+” equals >25 μM) | + (cell loss of greater than 50 percent at a concentration that equals or is greater than 25 μM was represented as)
9 | CCCN(CCC)c1nc(-c2ccncc2)nc2ccccc12 [Compound 166] | + (“+” equals >25 μM) | + (cell loss of greater than 50 percent at a concentration that equals or is greater than 25 μM was represented as)
10 | c1ccc(CCNc2nc(-c3ccncc3)nc3ccccc23)cc1 [Compound 167] | ++ (“++” equals between ≤25 μM and >1 μM) | + (cell loss of greater than 50 percent at a concentration that equals or is greater than 25 μM was represented as)
11 | OCCNc1nc(-c2ccncc2)nc2ccccc12 [Compound 168] | + (“+” equals >25 μM) | + (cell loss of greater than 50 percent at a concentration that equals or is greater than 25 μM was represented as)
12 | N#CCNc1nc(-c2ccncc2)nc2ccccc12 [Compound 169] | + (“+” equals >25 μM) | + (cell loss of greater than 50 percent at a concentration that equals or is greater than 25 μM was represented as)
13 | c1ccc2c(NC3CCCCC3)nc(-c3ccncc3)nc2c1 [Compound 170] | + (“+” equals >25 μM) | + (cell loss of greater than 50 percent at a concentration that equals or is greater than 25 μM was represented as)
14 | c1ccc(CCNc2nc(-c3ccncc3)nc3ccccc23)nc1 [Compound 171] | + (“+” equals >25 μM) | + (cell loss of greater than 50 percent at a concentration that equals or is greater than 25 μM was represented as)
15 | CS(=O)(=O)CCCNc1nc(-c2ccncc2)nc2ccccc12 [Compound 172] | + (“+” equals >25 μM) | + (cell loss of greater than 50 percent at a concentration that equals or is greater than 25 μM was represented as)
16 | CC(C#N)CN(C)c1nc(-c2ccncc2)nc2ccccc12 (stereo not drawn) [Compound 173] | + (“+” equals >25 μM) | + (cell loss of greater than 50 percent at a concentration that equals or is greater than 25 μM was represented as)
17 | NS(=O)(=O)CCCNc1nc(-c2ccncc2)nc2ccccc12 [Compound 174] | + (“+” equals >25 μM) | + (cell loss of greater than 50 percent at a concentration that equals or is greater than 25 μM was represented as)
18 | c1ccc2c(NC3CCN(C4CC4)CC3)nc(-c3ccncc3)nc2c1 [Compound 175] | + (“+” equals >25 μM) | + (cell loss of greater than 50 percent at a concentration that equals or is greater than 25 μM was represented as)
19 | CCN1CCCC1CNc1nc(-c2ccncc2)nc2ccccc12 (stereo not drawn) [Compound 176] | ++ (“++” equals between ≤25 μM and >1 μM) | + (cell loss of greater than 50 percent at a concentration that equals or is greater than 25 μM was represented as)
20 | OC1CCN(c2nc(-c3ccncc3)nc3ccccc23)CC1 [Compound 177] | + (“+” equals >25 μM) | + (cell loss of greater than 50 percent at a concentration that equals or is greater than 25 μM was represented as)
21 | c1ccc(Nc2nc(-c3ccncc3)nc3ccccc23)cc1 [Compound 179] | ++ (“++” equals between ≤25 μM and >1 μM) | + (cell loss of greater than 50 percent at a concentration that equals or is greater than 25 μM was represented as)
22 | Fc1ccccc1Nc1nc(-c2ccncc2)nc2ccccc12 [Compound 180] | + (“+” equals >25 μM) | + (cell loss of greater than 50 percent at a concentration that equals or is greater than 25 μM was represented as)
23 | Fc1ccc(Nc2nc(-c3ccncc3)nc3ccccc23)cc1 [Compound 181] | +++ (“+++” equals ≤1 μM) | + (cell loss of greater than 50 percent at a concentration that equals or is greater than 25 μM was represented as)
24 | Fc1cc(F)cc(Nc2nc(-c3ccncc3)nc3ccccc23)c1 [Compound 182] | + (“+” equals >25 μM) | + (cell loss of greater than 50 percent at a concentration that equals or is greater than 25 μM was represented as)
25 | Fc1ccc(Nc2nc(-c3ccncc3)nc3ccccc23)cc1F [Compound 183] | ++ (“++” equals between ≤25 μM and >1 μM) | + (cell loss of greater than 50 percent at a concentration that equals or is greater than 25 μM was represented as)
26 | Cc1cc(F)cc(Nc2nc(-c3ccncc3)nc3ccccc23)c1 [Compound 184] | ++ (“++” equals between ≤25 μM and >1 μM) | + (cell loss of greater than 50 percent at a concentration that equals or is greater than 25 μM was represented as)
27 | Cc1cccc(Nc2nc(-c3ccncc3)nc3ccccc23)c1 [Compound 185] | +++ (“+++” equals ≤1 μM) | + (cell loss of greater than 50 percent at a concentration that equals or is greater than 25 μM was represented as)
28 | N#Cc1cccc(Nc2nc(-c3ccncc3)nc3ccccc23)c1 [Compound 186] | +++ (“+++” equals ≤1 μM) | + (cell loss of greater than 50 percent at a concentration that equals or is greater than 25 μM was represented as)
29 | Clc1cccc(Nc2nc(-c3ccncc3)nc3ccccc23)c1 [Compound 187] | +++ (“+++” equals ≤1 μM) | + (cell loss of greater than 50 percent at a concentration that equals or is greater than 25 μM was represented as)
30 | Fc1cccc(CNc2nc(-c3ccncc3)nc3ccccc23)c1 [Compound 188] | + (“+” equals >25 μM) | + (cell loss of greater than 50 percent at a concentration that equals or is greater than 25 μM was represented as)
